Assay results reported in ChEMBL document CHEMBL3864122, “Antibacterial sulfur-containing platensimycin and platencin congeners from Streptomyces platensis SB12029” (2016).

How the values were obtained:
Staphylococcus aureus = assay: Antibacterial activity against methicillin-sensitive Staphylococcus aureus ATCC 25923 measured after 18 hrs by broth dilution method; type: functional; details: ATCC 25923, 18 h
Micrococcus luteus = assay: Antibacterial activity against Micrococcus luteus ATCC 9431 measured after 18 hrs by broth dilution method; type: functional; details: ATCC 9431, 18 h

| MIC (Staphylococcus aureus) | MIC (Micrococcus luteus) | SMILES |
| --- | --- | --- |
| 0.56 µM | 0.28 µM | C[C@]12C[C@@]34C=CC(=O)[C@@](C)(CCC(=O)Nc5c(O)ccc(C(=O)S[C@H]6CC(=O)[C@@](C)(CCC(=O)Nc7c(O)ccc(C(=O)O)c7O)[C@@H]7[C@@H]8C[C@@H]9C[C@]67C[C@]9(C)O8)c5O)[C@@H]3[C@H](C[C@@H]1C4)O2 |
| > 64 µg/mL | 64 µg/mL | COc1ccc(C(=O)SC)c(OC)c1NC(=O)CC[C@]1(C)C(=O)C=C[C@]23C[C@H]4C[C@H](O[C@@]4(C)C2)[C@H]31 |
| 1.13 µM | 1.13 µM | C[C@]12C[C@@]34C=CC(=O)[C@@](C)(CCC(=O)Nc5c(O)ccc(C(=O)O)c5O)[C@@H]3[C@H](C[C@@H]1C4)O2 |
